In US20080039425A1, “Methods and Compositions to Reduce Tissue Irritation in Parenteral Formulations” (ALLOS THERAPEUTICS, INC., priority 2004, published 2008):

Tested on: rat tail vein
Experiment: Rat-tail model, histopathological evaluation of tissue damage
Assay type: in vivo
Conditions: for Histopathology Score: rat tail vein, relative to efaproxiral at 38 mg/mL
Procedure: In order to determine if the effects seen in the NMR correlated to an ability of the dextrins to protect tissue, an animal model was designed. […] A 38 mg/mL efaproxiral solution was administered as the positive control. A saline solution was used as the negative control.
Maltodextrin has the property of being a safer molecule than its cyclic relative.

Question: Which results are given for `Cc1cc(C)cc(NC(=O)Cc2ccc(OC(C)(C)C(=O)O)cc2)c1` [Efaproxiral, 2-[4-[2-[(3,5-dimethylphenyl)amino]-2-oxoethyl]phenoxy]-2-methyl-propionic acid]?
Answer: Histopathology Score (efaproxiral 20 mg/mL): 24%; Histopathology Score (efaproxiral 38 mg/mL (positive control)): 100%

Question: `Cc1cc(C)cc(NC(=O)Cc2ccc(OC(C)(C)C(=O)[O-])cc2)c1.[Na+]` [efaproxiral-Na] was tested. Which “Tissue damage in rat tail (in words)” value (38 mg/mL efaproxiral, compared with saline negative control) did it give?
Answer: significant damage was observed beyond that associated with the administration
